Results from patent EP4707263A1, “FLUORINATING AGENT AND FLUORINATION METHOD” (Daikin Industries, Ltd., priority 2024, dated 2025).

Assay: pKa (acid dissociation constant) determined by neutralization titration
Assay type: physicochemical
Details: acid dissociation constant at 25°C in water

pKa: 16
SMILES: CO [Base B-2, KOMe]
